This note sets out measurements from patent publication US4977146A, “2,5-diaryl tetrahydrofurans and analogs thereof as PAF antagonists” (Merck & Co., Inc., priority 1990, dated 1990).

What is called inhibition is the percentage by which the read-out fell short of the control.

The assay has as its target T1, PAF specific receptor binding site on human platelet membranes (Homo sapiens, UniProt P25105).
T1 construct: 100 μg of the platelet plasma membrane suspension; from tissue; host or cells: human platelets (plasma membranes)
Nature of the assay: inhibition of the binding of [3H] N-methylcarbamoyl-PAF to human platelet membranes. The following applies: trans configuration, read-out: % inhibitor* (% inhibition of the binding of [3H] N-methylcarbamoyl-PAF to human platelet membranes). Here is the method: The ability of a compound of formula (I) to inhibit the PAF binding to its specific receptor binding site on rabbit or human platelet or PMN plasma membranes was measured by a recently developed assay.
The inhibition of ^3 [H] PAF or ^3 [H]N-methylcarbamoyl-PAF binding to the human or rabbit platelet or PMN plasma membrane by a PAF antagonist of formula (I) was determined by a method employing isotopic labeling and filtration techniques. Generally, a series of Tris-buffered solutions of the selected antagonist at predetermined concentrations were prepared. […] Two control samples, one of which (C1) contains all the ingredients described above except the antagonist and the other (C2) contains C1 plus a 1000-fold excess of unlabeled PAF, were also prepared and incubated simultaneously with the test samples. After the incubation was completed, the contents of each test tube were filtered in vacuo through a Whatman GF/C fiberglass filter and the residue washed rapidly several times with a total of 20 ml cold (0°-5° C.) Tris-buffer solution. Each washed residue was then suspended in 10 ml scintillation solution (Aquasol 2, New England Nuclear, Connecticut) and the radioactivity was counted in a Packard Tri-Carb 460CD Liguid Scintillation System.

SMILES strings stand for the structures.

T1 sequence (P25105 whole entry): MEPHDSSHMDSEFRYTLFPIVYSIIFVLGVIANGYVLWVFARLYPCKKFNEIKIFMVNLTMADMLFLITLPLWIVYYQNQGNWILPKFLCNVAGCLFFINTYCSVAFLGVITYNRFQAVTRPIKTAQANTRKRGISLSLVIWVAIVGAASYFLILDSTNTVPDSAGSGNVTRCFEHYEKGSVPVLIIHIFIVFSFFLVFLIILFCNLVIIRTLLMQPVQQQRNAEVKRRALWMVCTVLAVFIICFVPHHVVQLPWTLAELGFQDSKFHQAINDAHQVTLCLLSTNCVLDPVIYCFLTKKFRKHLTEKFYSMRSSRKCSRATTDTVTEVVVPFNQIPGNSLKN

As for `CCCOc1c(OCCCN(C)C)cc([C@@H]2CC[C@@H](c3cc(OC)c(OC)c(OC)c3)O2)cc1S(=O)(=O)CC(C)=O` (relative stereo) [2-[3-(2-Oxopropylsulfonyl)4-n-propoxy-5-{3-(N,N-dimethylamino)-n-propoxy}phenyl]-5-(3,4,5-trimethoxyphenyl)tetrahydrofuran], the inhibition was determined as 17%.
Take `CCCOc1c(OCC(C)=O)cc([C@H]2CC[C@H](c3cc(OC)c(OC)c(OC)c3)O2)cc1S(=O)(=O)CCO` (relative stereo) [SO2 CH2 CH2OH / CH2 CH2 CH3 / CH2 COCH3, trans-2-[3-(2-Hydroxyethylsulfonyl)-4-n-propoxy-5-(2-oxo-propoxy)phenyl]-5-(3,4,5-trimethoxy-phenyl)tetrahydrofuran]: the inhibition stood at 33%.
In the case of `CCCOc1c(OCC(C)=O)cc([C@H]2CC[C@H](c3cc(OC)c(OC)c(OC)c3)O2)cc1S(=O)(=O)CC(C)=O` (relative stereo) [SO2 CH2 COCH3 / CH2 CH2 CH3 / CH2 COCH3, trans-2-[3-(2-Oxopropyl-sulfonyl)-4-n-propoxy-5-(2-oxopropoxy)phenyl]-5-(3,4,5-trimethoxyphenyl)tetrahydrofuran], the inhibition came to 65%.
Regarding `CCCOc1cc([C@H]2CC[C@H](c3cc(OC)c(OC)c(OC)c3)O2)cc(S(=O)(=O)CCN)c1OCCC` (relative stereo) [trans-2-[3-(2-Aminoethylsulfonyl)-4,5-dipropoxyphenyl]-5-(3,4,5-trimethoxyphenyl)tetrahydrofuran], the inhibition is 27%.
Turning to `CCCOc1c(OCCCO)cc([C@H]2CC[C@H](c3cc(OC)c(OC)c(OC)c3)O2)cc1S(=O)(=O)CC(C)N` (relative stereo) [trans-2-[3-(2-Aminopropylsulfonyl)-4-n-propoxy-5-(3-hydroxypropoxy)phenyl]5-(3,4,5-trimethoxyphenyl)tetrahydrofuran], the inhibition was 18%.
As to `CCCOc1c(OCC(C)=O)cc([C@@H]2CC[C@@H](c3cc(OC)c(OC)c(OC)c3)O2)cc1S(=O)(=O)CCN(C)C` (relative stereo) [trans-2-[3-(2-N,N-Dimethylaminoethyl-sulfonyl)-4-n-propoxy-5-(2-oxo-propoxyphenyl]-5-(3,4,5-trimethoxyphenyl)tetrahydrofuran], the inhibition worked out at 31%.
Regarding `CCCOc1cc([C@@H]2CC[C@@H](c3cc(OC)c(OC)c(OC)c3)O2)cc(S(=O)(=O)CCN(C)C)c1OCCC` (relative stereo) [trans-2-[3-(2-N,N-Dimethylaminoethylsulfonyl)-4,5-di-n-propoxyphenyl]-5-(3,4,5-trimethoxyphenyl)tetrayhydrofuran], the inhibition turned out to be 58%.
`CCCOc1c(OCC(C)O)cc([C@@H]2CC[C@@H](c3cc(OC)c(OC)c(OC)c3)O2)cc1S(=O)(=O)CCN(C)C` (relative stereo) [trans-2-[3-(2-N,N-Dimethylaminoethylsulfonyl)-4-n-propoxy-5-(2-hydroxypropoxy)phenyl]-5-(3,4,5-trimethoxyphenyl)tetrahydrofuran]: the inhibition came to 14%.
In the case of `CCCOc1c(OCCCO)cc([C@@H]2CC[C@@H](c3cc(OC)c(OC)c(OC)c3)O2)cc1S(=O)(=O)CCN(C)C` (relative stereo) [trans-2-[3-(2-N,N-Dimethylaminoethylsulfonyl)-4-n-propoxy-5-(3-hydroxypropoxy)phenyl]-5-(3,4,5-trimethoxyphenyl)tetrahydrofuran], the inhibition stood at 46%.
In the case of `CCCOc1c(OCCCO)cc([C@@H]2CC[C@@H](c3cc(OC)c(OC)c(OC)c3)O2)cc1S(=O)(=O)CC(C)N(C)C` (relative stereo) [trans-2-[3-(2-N,N-dimethylaminopropyl-sulfonyl)-4-n-propoxy-5-(3-hydroxypropoxy)phenyl]5-(3,4,5-trimethoxyphenyl)tetrahydrofuran], the inhibition is 23%.
Regarding `CCCOc1cc([C@@H]2CC[C@@H](c3cc(OC)c(OC)c(OC)c3)O2)cc(S(=O)(=O)CCNCC)c1OCCC` (relative stereo) [trans-2-[3-(2-N-Ethylaminoethylsulfonyl)-4,5-dipropoxyphenyl]-5-(3,4,5-trimethoxyphenyl)tetrahydrofuran], the inhibition is 42%.
`CCCOc1c(OCCCO)cc([C@@H]2CC[C@@H](c3cc(OC)c(OC)c(OC)c3)O2)cc1S(=O)(=O)CC(C)NCC` (relative stereo) [trans-2-[3-(2-N-Ethylaminopropylsulfonyl)-4-propoxy-5-(3-hydroxypropoxy)phenyl]-5-(3,4,5-trimethoxyphenyl)tetrahydrofuran]: the inhibition was 36%.
On to `CCCOc1cc([C@@H]2CC[C@@H](c3cc(OC)c(OC)c(OC)c3)O2)cc(S(=O)(=O)CCNC)c1OCCC` (relative stereo) [trans-2-[3-(2-N-Methylaminoethylsulfonyl)-4,5-di-n-propoxyphenyl]-5-(3,4,5-trimethoxyphenyl) tetrahydrofuran], for which the inhibition was 58%.
For the compound `CCCOc1c(OCCCO)cc([C@@H]2CC[C@@H](c3cc(OC)c(OC)c(OC)c3)O2)cc1S(=O)(=O)CC(C)NC` (relative stereo) [trans-2-[3-(2-N-Methylaminopropylsulfonyl)-4-n-propoxy-5-(3-hydroxypropoxy)phenyl]-5-(3,4,5-trimethoxyphenyl)tetrahydrofuran], the inhibition was 38%.
The same measure for `CCCNCCS(=O)(=O)c1cc([C@@H]2CC[C@@H](c3cc(OC)c(OC)c(OC)c3)O2)cc(OCCC)c1OCCC` (relative stereo) [trans-2-[3-(2-N-Propylaminoethylsulfonyl)-4,5-dipropoxyphenyl]-5-(3,4,5-trimethoxyphenyl) tetrahydrofuran]: 33%.
Turning to `CCCOc1c(OCC(C)=O)cc([C@H]2CC[C@H](c3cc(OC)c(OC)c(OC)c3)O2)cc1S(=O)(=O)CC(C)O` (relative stereo) [trans-2-[3-(2-hydroxypropylsulfonyl)-4-n-propoxy-5-(2-oxopropoxy)phenyl]-5-(3,4,5-trimethoxy-phenyl)tetrahydrofuran], the inhibition turned out to be 52%.
For the compound `CCCOc1c(OCCCO)cc([C@H]2CC[C@H](c3cc(OC)c(OC)c(OC)c3)O2)cc1S(=O)(=O)CC(C)O` (relative stereo) [trans-2-[3-(2-hydroxypropylsulfonyl)-4-n-propoxy-5-(3-hydroxypropoxy)phenyl]-5-(3,4,5-trimethoxyphenyl)tetrahydrofuran], the inhibition was 26%.
